Experiments:
ΔF508-CFTR = biological target: T1, ΔF508-CFTR (Homo sapiens, UniProt P13569, DEL508-508); test: Assays for detecting and measuring ΔF508-CFTR correction properties (membrane potential optical assay); type: cell-based; conditions: PercentActivity; NIH3T3 mouse fibroblasts stably expressing ΔF508-CFTR
T1 construct: expressed in transfected cells
Text: Assays for Detecting and Measuring ΔF508-CFTR Correction Properties of Compounds
Membrane Potential Optical Methods for Assaying ΔF508-CFTR Modulation Properties of Compounds
The optical membrane potential assay utilized voltage-sensitive FRET sensors described by Gonzalez and Tsien (See Gonzalez, J. E. and R. Y. Tsien (1995) “Voltage sensing by fluorescence resonance energy transfer in single cells” Biophys J 69(4): 1272-80, and Gonzalez, J. E. and R. Y. Tsien (1997) “Improved indicators of cell membrane potential that use fluorescence resonance energy transfer” Chem Biol 4(4): 269-77) in combination with instrumentation for measuring fluorescence changes such as the Voltage/Ion Probe Reader (VIPR) (See, Gonzalez, J. E., K. Oades, et al. (1999) “Cell-based assays and instrumentation for screening ion-channel targets” Drug Discov Today 4(9): 431-439).
These voltage sensitive assays are based on the change in fluorescence resonant energy transfer (FRET) between the membrane-soluble, voltage-sensitive dye, DiSBAC2(3), and a fluorescent phospholipid, CC2-DMPE, which is attached to the outer leaflet of the plasma membrane and acts as a FRET donor. […] The changes in fluorescence emission were monitored using VIPR™ II, which is an integrated liquid handler and fluorescent detector designed to conduct cell-based screens in 96- or 384-well microtiter plates. […]

[1] = Solubility of Compound 1 with and without PEG cosolvent and vitamin E TPGS; type: physicochemical
Text: The PEG cosolvent and vitamin E TPGS induced micelle formation increase Compound 1 solubility from 7 micrograms to several milligrams per g of solution.

T1 sequence (P13569 with tags, fused parts or gaps DEL508-508): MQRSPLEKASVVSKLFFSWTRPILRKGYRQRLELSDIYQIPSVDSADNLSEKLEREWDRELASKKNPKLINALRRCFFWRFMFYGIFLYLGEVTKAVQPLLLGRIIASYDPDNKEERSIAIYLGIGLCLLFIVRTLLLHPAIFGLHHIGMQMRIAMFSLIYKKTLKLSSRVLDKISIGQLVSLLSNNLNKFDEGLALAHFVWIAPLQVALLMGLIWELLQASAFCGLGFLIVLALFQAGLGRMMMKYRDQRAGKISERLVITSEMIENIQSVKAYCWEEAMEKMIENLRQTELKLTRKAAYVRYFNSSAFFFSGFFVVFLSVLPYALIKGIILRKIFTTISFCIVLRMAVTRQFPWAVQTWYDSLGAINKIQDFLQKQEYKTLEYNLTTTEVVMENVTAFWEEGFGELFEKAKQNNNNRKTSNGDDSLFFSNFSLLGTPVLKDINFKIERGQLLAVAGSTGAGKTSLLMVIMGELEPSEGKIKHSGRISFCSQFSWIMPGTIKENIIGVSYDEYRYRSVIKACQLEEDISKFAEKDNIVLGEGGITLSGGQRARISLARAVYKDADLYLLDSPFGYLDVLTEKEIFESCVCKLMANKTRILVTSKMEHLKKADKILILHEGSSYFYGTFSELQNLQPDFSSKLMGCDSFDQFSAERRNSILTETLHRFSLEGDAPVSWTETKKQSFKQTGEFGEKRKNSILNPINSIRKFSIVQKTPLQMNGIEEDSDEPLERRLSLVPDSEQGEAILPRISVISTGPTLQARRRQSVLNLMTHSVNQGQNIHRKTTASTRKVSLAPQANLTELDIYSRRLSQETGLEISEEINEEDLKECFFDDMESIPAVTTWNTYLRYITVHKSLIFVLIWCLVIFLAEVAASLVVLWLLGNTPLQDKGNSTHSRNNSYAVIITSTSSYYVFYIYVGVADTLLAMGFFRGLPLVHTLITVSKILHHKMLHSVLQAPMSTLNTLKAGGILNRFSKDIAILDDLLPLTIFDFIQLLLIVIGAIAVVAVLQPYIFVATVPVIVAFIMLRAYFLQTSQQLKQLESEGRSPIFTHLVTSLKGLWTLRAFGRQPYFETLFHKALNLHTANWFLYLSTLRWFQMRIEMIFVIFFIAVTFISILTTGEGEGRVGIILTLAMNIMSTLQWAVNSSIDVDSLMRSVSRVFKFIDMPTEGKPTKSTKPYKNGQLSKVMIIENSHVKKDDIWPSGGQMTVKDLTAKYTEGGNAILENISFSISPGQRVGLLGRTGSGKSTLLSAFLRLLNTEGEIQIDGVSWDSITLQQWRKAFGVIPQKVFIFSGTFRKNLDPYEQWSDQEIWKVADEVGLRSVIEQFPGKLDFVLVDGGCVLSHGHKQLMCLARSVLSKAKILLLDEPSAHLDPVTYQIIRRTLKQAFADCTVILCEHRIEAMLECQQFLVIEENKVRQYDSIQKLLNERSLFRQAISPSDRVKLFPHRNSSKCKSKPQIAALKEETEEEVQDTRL

- Compound 1 solubility ([1]; with PEG cosolvent and vitamin E TPGS induced micelle formation): several
- Compound 1 solubility ([1]; without PEG cosolvent and vitamin E TPGS): 7 micrograms per g of solution
Structure (SMILES): CC(C)(CO)c1cc2cc(NC(=O)C3(c4ccc5c(c4)OC(F)(F)O5)CC3)c(F)cc2n1C[C@@H](O)CO [Compound 1, (R)-1-(2,2-difluorobenzo[d][1,3]dioxol-5-yl)-N-(1-(2,3-dihydroxypropyl)-6-fluoro-2-(1-hydroxy-2-methylpropan-2-yl)-1H-indol-5-yl)cyclopropanecarboxamide]
- Binned MaxEfficacy (ΔF508-CFTR): +++ (PercentActivity Bins: + <= 25.0 < ++ <= 100.0 < +++)
